Assays:
[1] = human, in vivo, iv, 80 mg/m2
clinical = settings: human, in vivo, iv, 80 mg/m2
[2] = Paclitaxel plasma pharmacokinetics alone and in combination with RO4929097; settings: 80 mg/m2 IV
metastatic TNBC = settings: in combination with first line docetaxel, metastatic TNBC patients; cited from earlier work

Compound | AUC INF [1] [ng·h/mL] | Half life [1] [h] | AUC(0-inf) (clinical) [ng·h/mL] | half-life (clinical) [h] | Paclitaxel PK alone (day -1) versus in combination with RO4929097 (day 15) [2] | Partial response (metastatic TNBC) [%] | Stable disease (metastatic TNBC) [%]
CC(=O)O[C@H]1C(=O)[C@@]2(C)[C@H]([C@H](OC(=O)c3ccccc3)[C@]3(O)C[C@H](OC(=O)[C@H](O)[C@@H](NC(=O)c4ccccc4)c4ccccc4)C(C)=C1C3(C)C)[C@]1(OC(C)=O)CO[C@@H]1C[C@@H]2O [Paclitaxel, paclitaxel] | 4911 ± 1078 | 11.3 ± 2.5 | 4800 ± 1170 | 10.3 ± 2.5 | No significant differences |  | 
CCC[C@H](N[C@H]1CCc2cc(F)cc(F)c2C1)C(=O)Nc1cn(C(C)(C)CNCC(C)(C)C)cn1 [PF-03084014] |  |  |  |  |  | 16 | 36

— article PMC7955776 (Investigational new drugs, 2020)
